system: BDNF; assay: Assay for BDNF expression in dopamine-reactive human cell line SH-SY5Y (Western blotting); type: cell-based; conditions: SH-SY5Y cells, 12 hrs treatment, FIG. 2
Procedure: SH-SY5Y cells were seeded at a density of 2×10^5 cells/well into 6-well plates (NUNC) and incubated at 34° C. for 12 hrs in a 5% CO2 incubator and then for an additional 12 hrs in the presence of one of NP 2 to 9 at a concentration of 1 pM, 10 pM, 100 pM, 1 nM, 10 nM, 100 nM, or 1 μM. The cells in each well were washed twice with 1 mL of 1×PBS […], treated with 10 μL of protease inhibitor (Amersham) per 1 mL of RIPA, and collected into 1.5 mL tubes using a cell lifter (Corning). After centrifugation at 4° C. and 9000 rpm for 5 min (MiCRO 17 TR, Hnil Science Industrial Co., Ltd.) to pelletize cell membranes, the supernatants containing proteins were transferred into new 1.5 mL tubes and quantitatively measured for protein level using a Bradford assay.
20 μL of each sample was loaded onto 15% acrylamide gel, prepared using a 1.5 mm Western blotting gel caster (Bio-Rad), and run for 2.5 hrs in the presence of an electric field of 100 V using an electrophoresis power supply (EPS 601, Amersham). The proteins run on the gel were transferred onto a PVDF membrane (Polyvinylidene Difluoride, Millipore) at 400 mA for 2.5 hrs in a transfer tank (Mighty small transphor, Amersham) using an electrophoresis power supply (EPS301, GE healthcare). The PVDF membrane was blocked for 1 hr with 7% skim milk (Difco™ Skim milk, BD) and incubated overnight with a mouse anti-human BDNF monoclonal antibody at a dilution ratio of 1:500. Thereafter, the membrane was washed for 2 hrs 0.05% TBST (Tris-Buffered Saline Tween 20) (this buffer was replaced every hour) and incubated for 1 hr with goat anti-mouse IgG:HRP (IgG:Horseradish Peroxidase Conjugate, SC-2005, Santa Cruz Biotechnology) at a ratio of 1:500. After washing the membrane with 0.05% TBST for 2 hrs (the buffer was replaced every hour), proteins were detected using a chemiluminescent HRP substrate kit (Millipore), and the results are shown in FIG. 2.

Row | Substance | BDNF expression (relative level of BDNF to β-actin vs control)
1 | Met-Asp-Gly [NP-5] | even a very small amount of NP-5 and NP-6 could augment BDNF expression
2 | Met-Thr-Gly [NP-6] | even a very small amount of NP-5 and NP-6 could augment BDNF expression
3 | Val-Gly [NP-9] | used at the same or less than was the amount of the tripeptides so as to induce BDNF expression
